#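 Growth conditions: 96-well plates. Treatment: test compound, 48 hours, 5 concentrations. Analysis: linear interpolation between bracketing concentrations; unreached endpoints set to highest concentration. TGI: concentration producing complete growth inhibition.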
# Experiments:
# Experiment in all cases: NCI anticancer screen, dose series, 48 h
# SN12C renal = test system: SN12C renal
# SK-OV-3 ovarian = test system: SK-OV-3 ovarian
# OVCAR-8 ovarian = test system: OVCAR-8 ovarian
# EKVX NSCLC = test system: EKVX NSCLC
# MOLT-4 leukemia = test system: MOLT-4 leukemia
# DU-145 prostate = test system: DU-145 prostate
# SK-MEL-5 melanoma = test system: SK-MEL-5 melanoma
# OVCAR-5 ovarian = test system: OVCAR-5 ovarian
# MDA-MB-435 = test system: MDA-MB-435
# ACHN renal = test system: ACHN renal
# OVCAR-4 ovarian = test system: OVCAR-4 ovarian
# LOX IMVI melanoma = test system: LOX IMVI melanoma
# MALME-3M melanoma = test system: MALME-3M melanoma
# UACC-62 melanoma = test system: UACC-62 melanoma
# U251 CNS = test system: U251 CNS
# TK-10 renal = test system: TK-10 renal
# OVCAR-3 ovarian = test system: OVCAR-3 ovarian
# HT29 colon = test system: HT29 colon
# MDA-MB-231 breast = test system: MDA-MB-231 breast
# MCF7 breast = test system: MCF7 breast
# MDA-N = test system: MDA-N
# SF-295 CNS = test system: SF-295 CNS
# 786-0 renal = test system: 786-0 renal
# HOP-92 NSCLC = test system: HOP-92 NSCLC
# BT-549 breast = test system: BT-549 breast
# M14 melanoma = test system: M14 melanoma
# CCRF-CEM leukemia = test system: CCRF-CEM leukemia
# HCT-15 colon = test system: HCT-15 colon
# SK-MEL-28 melanoma = test system: SK-MEL-28 melanoma
# UO-31 renal = test system: UO-31 renal
# A498 renal = test system: A498 renal
# NCI-H226 lung = test system: NCI-H226 lung
# NCI-H23 lung = test system: NCI-H23 lung
# K-562 leukemia = test system: K-562 leukemia
# HS 578T breast = test system: HS 578T breast
# SK-MEL-2 melanoma = test system: SK-MEL-2 melanoma
# COLO 205 colon = test system: COLO 205 colon
# SW-620 colon = test system: SW-620 colon
# A549 NSCLC = test system: A549 NSCLC
# NCI-H460 lung = test system: NCI-H460 lung
# RXF 393 renal = test system: RXF 393 renal
# SNB-19 CNS = test system: SNB-19 CNS
# NCI/ADR-RES ovarian = test system: NCI/ADR-RES ovarian
# IGROV1 ovarian = test system: IGROV1 ovarian
# RPMI-8226 leukemia = test system: RPMI-8226 leukemia
# CAKI-1 renal = test system: CAKI-1 renal
# NCI-H522 lung = test system: NCI-H522 lung
# PC-3 prostate = test system: PC-3 prostate
# T-47D breast = test system: T-47D breast
# HCT-116 colon = test system: HCT-116 colon
# SF-268 CNS = test system: SF-268 CNS
# HCC-2998 colon = test system: HCC-2998 colon
# HOP-62 NSCLC = test system: HOP-62 NSCLC
# KM12 colon = test system: KM12 colon
# UACC-257 melanoma = test system: UACC-257 melanoma
# HL-60(TB) leukemia = test system: HL-60(TB) leukemia
# SNB-75 CNS = test system: SNB-75 CNS
# SF-539 CNS = test system: SF-539 CNS
smiles,measurement,setting,value
CCN(CC)CCn1ncc2c(N)ncnc21,TGI,SN12C renal,> 100 µM
same,TGI,SK-OV-3 ovarian,> 100 µM
same,TGI,OVCAR-8 ovarian,> 100 µM
same,TGI,EKVX NSCLC,> 100 µM
same,TGI,MOLT-4 leukemia,> 100 µM
same,TGI,DU-145 prostate,> 100 µM
same,TGI,SK-MEL-5 melanoma,> 100 µM
same,TGI,OVCAR-5 ovarian,> 100 µM
same,TGI,MDA-MB-435,> 100 µM
same,TGI,ACHN renal,> 100 µM
same,TGI,OVCAR-4 ovarian,> 100 µM
same,TGI,LOX IMVI melanoma,> 100 µM
same,TGI,MALME-3M melanoma,> 100 µM
same,TGI,UACC-62 melanoma,> 100 µM
same,TGI,U251 CNS,> 100 µM
same,TGI,TK-10 renal,> 100 µM
same,TGI,OVCAR-3 ovarian,> 100 µM
same,TGI,HT29 colon,> 100 µM
same,TGI,MDA-MB-231 breast,> 100 µM
same,TGI,MCF7 breast,> 100 µM
same,TGI,MDA-N,> 100 µM
same,TGI,SF-295 CNS,> 100 µM
same,TGI,786-0 renal,> 100 µM
same,TGI,HOP-92 NSCLC,> 100 µM
same,TGI,BT-549 breast,> 100 µM
same,TGI,M14 melanoma,> 100 µM
same,TGI,CCRF-CEM leukemia,> 100 µM
same,TGI,HCT-15 colon,> 100 µM
same,TGI,SK-MEL-28 melanoma,> 100 µM
same,TGI,UO-31 renal,> 100 µM
same,TGI,A498 renal,> 100 µM
same,TGI,NCI-H226 lung,> 100 µM
same,TGI,NCI-H23 lung,> 100 µM
same,TGI,K-562 leukemia,> 100 µM
same,TGI,HS 578T breast,> 100 µM
same,TGI,SK-MEL-2 melanoma,> 100 µM
same,TGI,COLO 205 colon,> 100 µM
same,TGI,SW-620 colon,> 100 µM
same,TGI,A549 NSCLC,> 100 µM
same,TGI,NCI-H460 lung,> 100 µM
same,TGI,RXF 393 renal,> 100 µM
same,TGI,SNB-19 CNS,> 100 µM
same,TGI,NCI/ADR-RES ovarian,> 100 µM
same,TGI,IGROV1 ovarian,> 100 µM
same,TGI,RPMI-8226 leukemia,> 100 µM
same,TGI,CAKI-1 renal,> 100 µM
same,TGI,NCI-H522 lung,> 100 µM
same,TGI,PC-3 prostate,> 100 µM
same,TGI,T-47D breast,> 100 µM
same,TGI,HCT-116 colon,> 100 µM
same,TGI,SF-268 CNS,> 100 µM
same,TGI,HCC-2998 colon,> 100 µM
same,TGI,HOP-62 NSCLC,> 100 µM
same,TGI,KM12 colon,> 100 µM
CCOC(=O)C(C(=O)OCC)C1C=CCC2c3ccccc3COCC21 (configuration not stated),TGI,SN12C renal,> 100 µM
same,TGI,SK-OV-3 ovarian,> 100 µM
same,TGI,UACC-257 melanoma,> 100 µM
same,TGI,OVCAR-8 ovarian,> 100 µM
same,TGI,EKVX NSCLC,> 100 µM
same,TGI,MOLT-4 leukemia,> 100 µM
same,TGI,DU-145 prostate,> 100 µM
same,TGI,SK-MEL-5 melanoma,36 µM
same,TGI,OVCAR-5 ovarian,> 100 µM
same,TGI,MDA-MB-435,> 100 µM
same,TGI,ACHN renal,> 100 µM
same,TGI,OVCAR-4 ovarian,> 100 µM
same,TGI,HL-60(TB) leukemia,56.8 µM
same,TGI,LOX IMVI melanoma,> 100 µM
same,TGI,MALME-3M melanoma,> 100 µM
same,TGI,UACC-62 melanoma,> 100 µM
same,TGI,U251 CNS,> 100 µM
same,TGI,TK-10 renal,> 100 µM
same,TGI,OVCAR-3 ovarian,> 100 µM
same,TGI,HT29 colon,> 100 µM
same,TGI,MDA-MB-231 breast,> 100 µM
same,TGI,MCF7 breast,> 100 µM
same,TGI,MDA-N,> 100 µM
same,TGI,SNB-75 CNS,> 100 µM
same,TGI,SF-295 CNS,> 100 µM
same,TGI,786-0 renal,> 100 µM
same,TGI,HOP-92 NSCLC,> 100 µM
same,TGI,SF-539 CNS,> 100 µM
same,TGI,BT-549 breast,> 100 µM
same,TGI,M14 melanoma,> 100 µM
same,TGI,CCRF-CEM leukemia,> 100 µM
same,TGI,HCT-15 colon,> 100 µM
same,TGI,SK-MEL-28 melanoma,> 100 µM
same,TGI,UO-31 renal,> 100 µM
same,TGI,A498 renal,> 100 µM
same,TGI,NCI-H226 lung,> 100 µM
same,TGI,NCI-H23 lung,> 100 µM
same,TGI,K-562 leukemia,> 100 µM
same,TGI,HS 578T breast,> 100 µM
same,TGI,SK-MEL-2 melanoma,> 100 µM
same,TGI,COLO 205 colon,48.9 µM
same,TGI,SW-620 colon,> 100 µM
same,TGI,A549 NSCLC,> 100 µM
same,TGI,NCI-H460 lung,> 100 µM
same,TGI,RXF 393 renal,> 100 µM
same,TGI,SNB-19 CNS,> 100 µM
same,TGI,NCI/ADR-RES ovarian,96.1 µM
same,TGI,IGROV1 ovarian,> 100 µM
same,TGI,RPMI-8226 leukemia,> 100 µM
same,TGI,CAKI-1 renal,> 100 µM
same,TGI,NCI-H522 lung,71.2 µM
same,TGI,PC-3 prostate,> 100 µM
same,TGI,T-47D breast,> 100 µM
same,TGI,HCT-116 colon,> 100 µM
same,TGI,SF-268 CNS,> 100 µM
same,TGI,HCC-2998 colon,> 100 µM
same,TGI,HOP-62 NSCLC,> 100 µM
same,TGI,KM12 colon,> 100 µM

# From PubChem BioAssay (NCI)
